Source: patent publication US7145032B2, “Therapeutic malonic acid/acetic acid C60 tri-adducts of buckminsterfullerene and methods related thereto” (priority 2002, dated 2006)

Columns and labels:
monkeys = conditions: one monkey; mean survival 25 months; cited from earlier work
Drosophila = conditions: controlled study; cited from earlier work
C57B6 mice [1] = conditions: chronic treatment starting at 18 months of age; cited from earlier work
rats = conditions: treatment from age 96 weeks to end of life; control 147+/−1; cited from earlier work
Fisher 344 rats [2] = conditions: cited from earlier work
Fisher 344 rats [3] = conditions: same dose of deprenyl; cited from earlier work
C57B6 mice [4] = type: in vivo; conditions: oral C3 from 12 months of age to end of life, versus control
Experimental: The date of spontaneous death for each mouse was recorded, and used to calculate the lifespan. Lifespan of each mouse was calculated in months because mice received from the NIA rodent colony have their birth month, but not their specific birth date, recorded. Average survival was calculated for each treatment and the mean lifespans were compared using a t-test with significance set to p<0.05 (actual p=0.033).
Twelve month old C57B6NIH male and female mice (equal numbers) were purchased from the National Institute on Aging (NIA) Aging Rodent Colony. Mice shipped from this colony were not selected in any way for health, tumors or other disabilities, and all mice obtained from the colony were subsequently enrolled in the study. […]
Solution A or solution B was placed in the water bottles, and solutions were topped-off twice weekly, and filtered to remove any particulates biweekly by an individual blind to the identity of the solutions. […] Mice were allowed to die spontaneously, and their date of death were recorded by the Animal Housing Facility staff as part of the normal operating procedure of the facility. […] When animals died, the cage number, identity of the animal, and the date of death were recorded on the death notice, which was then sent to the laboratory, where the information was entered into the database.

[5] = Hydration of freeze dried sodium salt; type: physicochemical; conditions: dry weight divided by expected weight for complete neutralization; freeze dried 4 days
[6] = Thermal stability in 1:1 acetonitrile:water at 60°; type: physicochemical; conditions: for Hexa, percent of injected compound (HPLC): 60° C.
Excerpt: The composition was monitored by HPLC, using protocols 2 and 4 (see Table 1).

[7] = Plasma pharmacokinetics and tissue distribution in mice
Excerpt: The above dosing information is based on a pharmokinetics study carried out in mice, toxicity testing in mice and toxicity testing in rats.

[8] = Reactivity of C3 with superoxide; type: biochemical; conditions: calculated
Excerpt: Because many important biological reactions generate reactive oxygen species intentionally, or as unwanted toxic by-products, antioxidant molecules capable of supplementing the antioxidant defenses of cells as potential therapeutic agents are therapeutically useful. […] These novel carboxyfullerene compositions have antioxidant properties.

Solubility = type: physicochemical
Excerpt: The progress of the reaction was monitored by HPLC (Protocol 2).

O=CC[C@@H](O)[C@H](O)[C@H](O)CO [2-deoxyglucose]
survival of a treated monkey (monkeys): 38 months

C#CCN(C)[C@H](C)Cc1ccccc1 [deprenyl]
effect on lifespan (Drosophila): did not show an increase in lifespan
survival benefit (C57B6 mice [1]): failed to show any survival benefit
lifespan of treated rats (rats): 198+/−2 weeks
increase in longevity (Fisher 344 rats [2]; not statistically significant): 7%
mean survival of treated animals (Fisher 344 rats [2]; treatment from 18 months of age, controls 28 months): 30 months
effect on mortality and lifespan (Fisher 344 rats [3]): greater mortality and shortened lifespan

e,e,e tris malonic acid C60 [Compound C3]
increase in the lifespan (C57B6 mice [4]): approximately 20%
Hydration of Na salt [5]: 1.31
Thermal Stability # of products ([6]; 60°): 10
Hexa, percent of injected compound (HPLC) ([6]; incubation 5.5 h): 2.6%
Hexa, percent of injected compound (HPLC) ([6]; incubation […]): 9.2%
Hexa, percent of injected compound (HPLC) ([6]; incubation […], 97.4% at 0 h): 40.5%
route of clearance [7]: excretion through both the liver and kidney
tissue levels / distribution ([7]; various times after ip administration): accumulation through the liver and kidney
rate constant of C3 reaction with superoxide [8]: 3e+06 M⁻¹ s⁻¹
Solubility Sodium salt (Solubility; calculated for the acid, unit not printed for this column (neighbour: mg/ml)): >450^6
Solubility Water (Solubility; uv of liquid portion of a saturated solution): >454^6 mg/ml
